IC50 data for 24 compounds are collected here from US8088761B2, “Enzyme inhibitors” (Cancer Research Technology Limited, priority 2005, dated 2012).

Where two headings read alike, the source gives them in different places. A value given as a limit tells only on which side of the number the result lay.

One test deals with HCT116 cells. As to the kind of experiment: Cell viability assay (MTT) in HCT116 cell line. It counts as cell-based. Particulars: Homo sapiens, HCT-116, 72 hrs, IC50 range, read-out: HCT116 cell growth inhibition. On the procedure:
Cell Viability Assay: Determination of IC50 of Aurora Inhibitors in HCT116 Cell Line Using MTT Assay. The effects of compounds of the Examples on cellular proliferation were determined using the MTT assay according to manufacturer's instructions (Sigma). Briefly, the human colon tumour cells HCT116, were seeded in triplicate into 96-well plates at 2500 cells/well 24 hours before treatment with a range of concentrations of Aurora inhibitors (0-50 μM). After 72 hrs, 15 μl/well of 0.5% 3-(4,5-dimethylthiazol-2-yl)-2,5-diphenyltetrazolium bromide (MTT) was added to the cells for 4 hrs at 37° C., the dye-stained viable cells were extracted by adding 150 μl/well of dimethyl sulphoxide (DMSO). […] The IC50 was calculated using the Prism software.

In the next test the target is T1, Aurora-A (Homo sapiens, UniProt O14965).
T1 sequence (O14965 1-403): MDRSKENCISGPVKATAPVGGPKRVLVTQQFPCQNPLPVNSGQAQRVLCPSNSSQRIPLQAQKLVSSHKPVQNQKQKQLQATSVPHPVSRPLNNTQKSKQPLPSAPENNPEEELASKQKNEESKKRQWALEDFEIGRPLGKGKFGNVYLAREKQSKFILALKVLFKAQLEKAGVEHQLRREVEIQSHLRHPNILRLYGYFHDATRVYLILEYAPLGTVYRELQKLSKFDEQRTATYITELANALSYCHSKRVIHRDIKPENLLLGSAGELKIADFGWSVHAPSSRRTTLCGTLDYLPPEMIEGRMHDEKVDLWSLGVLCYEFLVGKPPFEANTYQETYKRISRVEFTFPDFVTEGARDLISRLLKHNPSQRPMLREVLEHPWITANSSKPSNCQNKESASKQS
Put plainly: Flashplate Aurora A enzyme inhibition assay. Format: biochemical. Here is the method:
Flashplate® Assay for Identification and Evaluation of Aurora-A Inhibitors
On this assay 384-well Basic Flashplate® (SMP400E, PerkinElmer) as solid assay platform was used. The plates were coated overnight at 4° C. with […] at 100 μg/ml in PBS buffer and used after being washed twice with PBS. 5 μl of compound in 2% DMSO was added to each well followed by 15 μl master mix of kinase buffer (50 mM Tris pH 7.5, 10 mM NaCl, 2.5 mM MgCl2, 1 mM […], 20 μM ATP, and 0.025 μCi/μl ^33P-ATP). Finally, 250 ng per well of Aurora-A enzyme was added. The plate was shaken for approximately 2 min on a flat-bed plate shaker (Wellmix, Denley, UK) and incubated for 2 hours at room temperature. The reaction was stopped by washing the plate twice on a 16-pin wash (ELX50 BioTek Instruments Ltd., Northstar, Bedford, UK) with 10 mM sodium pyrophosphate. The plate was then read on a TopCount-NX™ (PerkinElmer Life Sciences UK Ltd., Hounslow, UK).

The mark [1] stands for this setting: Flashplate assay, IC50 range, read-out: Aurora-A inhibition.

Regarding `NCc1ccc(-c2nc3c(N4CCN(CC(=O)Nc5nccs5)CC4)c(Br)cnc3[nH]2)cc1` [Example 7, 2-{4-[2-(4-Aminomethyl-phenyl)-6-bromo-3H-imidazo[4,5-b]pyridin-7-yl]-piperazin-1-yl}-N-thiazol-2-yl-acetamide], the IC50 with HCT116 cells is 500 to 2000 nM; on Aurora-A (setting [1]), < 500 nM.

As to `CN(C)Cc1ccc(-c2nc3c(N4CCN(CC(=O)Nc5nccs5)CC4)c(Br)cnc3[nH]2)cc1` [Example 8, 2-{4-[6-Bromo-2-(4-dimethylaminomethyl-phenyl)-3H-imidazo[4,5-b]pyridin-7-yl]-piperazin-1-yl}-N-thiazol-2-yl-acetamide], the IC50 with HCT116 cells is 500 to 2000 nM; at Aurora-A (setting [1]) it was < 500 nM.

Take `O=C(CN1CCN(c2c(Br)cnc3[nH]cnc23)CC1)Nc1nccs1` [Example 10, 2-[4-(6-Bromo-3H-imidazo[4,5-b]pyridin-7-yl)-piperazin-1-yl]-N-thiazol-2-yl-acetamide]: the IC50 is 2000 to 50000 nM with HCT116 cells and 500 to 2000 nM at Aurora-A (setting [1]).

Consider `CC(C)(C)OC(=O)NCc1cccc(-c2nc3c(N4CCN(CC(=O)Nc5nccs5)CC4)c(Br)cnc3[nH]2)c1` [Example 11, (3-{6-Bromo-7-[4-(thiazol-2-ylcarbamoylmethyl)-piperazin-1-yl]-3H-imidazo[4,5-b]pyridin-2-yl}-benzyl)-carbamic acid tert-butyl ester], for which the IC50 with HCT116 cells was 500 to 2000 nM; at Aurora-A (setting [1]), < 500 nM.

For the compound `NCc1cccc(-c2nc3c(N4CCN(CC(=O)Nc5nccs5)CC4)c(Br)cnc3[nH]2)c1` [Example 12, 2-{4-[2-(3-Aminomethyl-phenyl)-6-bromo-3H-imidazo[4,5-b]pyridin-7-yl]-piperazin-1-yl}-N-thiazol-2-yl-acetamide], the results for the IC50 with HCT116 cells and on Aurora-A (setting [1]) were 2000 to 50000 nM and < 500 nM, respectively.

With `CN(C)Cc1cccc(-c2nc3c(N4CCN(CC(=O)Nc5nccs5)CC4)c(Br)cnc3[nH]2)c1` [Example 13, 2-{4-[6-Bromo-2-(3-dimethylaminomethyl-phenyl)-3H-imidazo[4,5-b]pyridin-7-yl]-piperazin-1-yl}-N-thiazol-2-yl-acetamide], the IC50 in the test on HCT116 cells is 500 to 2000 nM; at Aurora-A (setting [1]) it was < 500 nM.

On to `CC(c1ccccc1)N1CCN(c2c(Cl)cnc3[nH]c(-c4ccc(N(C)C)cc4)nc23)CC1` (stereo not drawn) [Example 17, 4-(6-chloro-7-(4-(1-phenylethyl)piperazin-1-yl)-3H-imidazo[4,5-b]pyridin-2-yl)-N,N-dimethylaniline], for which the IC50 in the test with HCT116 cells is 500 to 2000 nM; at Aurora-A (setting [1]), < 500 nM.

Consider `COc1ccc(-c2nc3c(N4CCN(CC(=O)Nc5nccs5)CC4)c(Cl)cnc3[nH]2)cc1` [Example 19, 2-(4-(6-Chloro-2-(4-methoxyphenyl)-3H-imidazo[4,5-b]pyridin-7-yl)piperazin-1-yl)-N-(thiazol-2-yl)acetamide], for which the IC50 in the test with HCT116 cells was 500 to 2000 nM; at Aurora-A (setting [1]), < 500 nM.

Regarding `CN(C)c1ccc(-c2nc3c(N4CCN(CC(=O)Nc5ccccc5)CC4)c(Br)cnc3[nH]2)cc1` [Example 20, 2-(4-(6-Bromo-2-(4-(dimethylamino)phenyl)-3H-imidazo[4,5-b]pyridin-7-yl)piperazin-1-yl)-N-phenylacetamide], the IC50 was 500 to 2000 nM with HCT116 cells and < 500 nM at Aurora-A (setting [1]).

Consider `CN(C)c1ccc(-c2nc3c(N4CCN(CC(=O)Nc5cccnc5)CC4)c(Br)cnc3[nH]2)cc1` [Example 21, 2-(4-(6-Bromo-2-(4-(dimethylamino)phenyl)-3H-imidazo[4,5-b]pyridin-7-yl)piperazin-1-yl)-N-(pyridin-3-yl)acetamide], for which the IC50 was 500 to 2000 nM with HCT116 cells and < 500 nM at Aurora-A (setting [1]).

For `CN(C)c1ccc(-c2nc3c(N4CCN(CC(=O)Nc5ccccc5)CC4)c(Cl)cnc3[nH]2)cc1` [Example 22, 2-(4-(6-Chloro-2-(4-(dimethylamino)phenyl)-3H-imidazo[4,5-b]pyridin-7-yl)piperazin-1-yl)-N-phenylacetamide], the IC50 with HCT116 cells is 2000 to 50000 nM; at Aurora-A (setting [1]), < 500 nM.

As to `Cc1csc(NC(=O)CN2CCN(c3c(Cl)cnc4[nH]c(-c5ccc(N(C)C)cc5)nc34)CC2)n1` [Example 23, 2-(4-(6-Chloro-2-(4-(dimethylamino)phenyl)-3H-imidazo[4,5-b]pyridin-7-yl)piperazin-1-yl)-N-(4-methylthiazol-2-yl)acetamide], the IC50 in the test on HCT116 cells was 500 to 2000 nM; at Aurora-A (setting [1]), < 500 nM.

In the case of `CN(C)c1ccc(-c2nc3c(N4CCN(CC(=O)Nc5cccc(Cl)c5)CC4)c(Cl)cnc3[nH]2)cc1` [Example 24, 2-(4-(6-Chloro-2-(4-(dimethylamino)phenyl)-3H-imidazo[4,5-b]pyridin-7-yl)piperazin-1-yl)-N-(3-chlorophenyl)acetamide], the IC50 was 2000 to 50000 nM in the test on HCT116 cells and < 500 nM at Aurora-A (setting [1]).

Consider `CN(C)c1ccc(-c2nc3c(N4CCN(CC(=O)N5CCCC5)CC4)c(Br)cnc3[nH]2)cc1` [Example 25, 2-(4-(6-Bromo-2-(4-(dimethylamino)phenyl)-3H-imidazo[4,5-b]pyridin-7-yl)piperazin-1-yl)-1-(pyrrolidin-1-yl)ethanone], for which the IC50 is 2000 to 50000 nM in the test on HCT116 cells and < 500 nM on Aurora-A (setting [1]).

Turning to `CN(C)c1ccc(-c2nc3c(N4CCN(Cc5ccc(Cl)cc5)CC4)c(Br)cnc3[nH]2)cc1` [Example 26, 4-(6-Bromo-7-(4-(4-chlorobenzyl)piperazin-1-yl)-3H-imidazo[4,5-b]pyridin-2-yl)-N,N-dimethylaniline], the IC50 with HCT116 cells and at Aurora-A (setting [1]) was < 500 nM each time.

Regarding `CN(C)c1ccc(-c2nc3c(N4CCN(Cc5cccnc5)CC4)c(Br)cnc3[nH]2)cc1` [Example 27, 4-(6-Bromo-7-(4-(pyridin-3-ylmethyl)piperazin-1-yl)-3H-imidazo[4,5-b]pyridin-2-yl)-N,N-dimethylaniline], the IC50 was 500 to 2000 nM in the test on HCT116 cells and < 500 nM at Aurora-A (setting [1]).

On to `COc1ccc(-c2nc3c(N4CCN(Cc5cccnc5)CC4)c(Br)cnc3[nH]2)cc1` [Example 28, 6-Bromo-2-(4-methoxyphenyl)-7-(4-(pyridin-3-ylmethyl)piperazin-1-yl)-3H-imidazo[4,5-b]pyridine], for which the figures for the IC50 in the test on HCT116 cells and on Aurora-A (setting [1]) were 500 to 2000 nM and < 500 nM, respectively.

With `COc1cccc(-c2nc3c(N4CCN(CC(=O)Nc5nccs5)CC4)c(Br)cnc3[nH]2)c1` [Example 29], the results for the IC50 with HCT116 cells and on Aurora-A (setting [1]) were 500 to 2000 nM and < 500 nM, respectively.

Consider `CN(C)c1ccc(-c2nc3c(N4CCN(Cc5ccccn5)CC4)c(Br)cnc3[nH]2)cc1` [Example 30, 4-(6-Bromo-7-(4-(pyridin-2-ylmethyl)piperazin-1-yl)-3H-imidazo[4,5-b]pyridin-2-yl)-N,N-dimethylaniline], for which the IC50 in the test on HCT116 cells was 2000 to 50000 nM; on Aurora-A (setting [1]) it was < 500 nM.

For `CN(C)c1ccc(-c2nc3c(N4CCN(Cc5ccncc5)CC4)c(Br)cnc3[nH]2)cc1` [Example 31, 4-(6-Bromo-7-(4-(pyridin-4-ylmethyl)piperazin-1-yl)-3H-imidazo[4,5-b]pyridin-2-yl)-N,N-dimethylaniline], the IC50 with HCT116 cells is 500 to 2000 nM; at Aurora-A (setting [1]), < 500 nM.

Consider `CC(C)CN1CCN(c2c(Br)cnc3[nH]c(-c4ccc(N(C)C)cc4)nc23)CC1` [Example 32, 4-(6-Bromo-7-(4-isobutylpiperazin-1-yl)-3H-imidazo[4,5-b]pyridin-2-yl)-N,N-dimethylaniline], for which the values for the IC50 with HCT116 cells and against Aurora-A were 500 to 2000 nM and < 500 nM, respectively.

For the compound `CN(C)c1ccc(-c2nc3c(N4CCCN(Cc5ccc(F)cc5)CC4)c(Br)cnc3[nH]2)cc1` [Example 34, 4-(6-Bromo-7-(4-(4-fluorobenzyl)-1,4-diazepan-1-yl)-3H-imidazo[4,5-b]pyridin-2-yl)-N,N-dimethylaniline], the results for the IC50 with HCT116 cells and at Aurora-A (setting [1]) were 2000 to 50000 nM and < 500 nM, respectively.

As for `COc1ccc(-c2nc3c(N4CCN(Cc5ccncc5)CC4)c(Cl)cnc3[nH]2)cc1` [Example 35, 6-Chloro-2-(4-methoxyphenyl)-7-(4-(pyridin-4-ylmethyl)piperazin-1-yl)-3H-imidazo[4,5-b]pyridine], the IC50 is 500 to 2000 nM in the test on HCT116 cells and < 500 nM on Aurora-A (setting [1]).

Turning to `COc1ccc(-c2nc3c(N4CCN(CC(C)C)CC4)c(Cl)cnc3[nH]2)cc1` [Example 36, 6-Chloro-7-(4-isobutylpiperazin-1-yl)-2-(4-methoxyphenyl)-3H-imidazo[4,5-b]pyridine], the IC50 in the test with HCT116 cells and at Aurora-A (setting [1]) was < 500 nM in each case.
